From patent US7625917B2, “Thiolesters and uses thereof” (priority 1998, dated 2009)
Entries after “also recorded” stand apart in the source; their conditions may differ.

What was measured:
[1] = molecular target: NCp7 (Human immunodeficiency virus type 1 group M subtype B, UniProt P03347); test: NCp7 oligonucleotide binding EMSA; type: biochemical, HIV-1; details: for concentration at which NCp7-oligonucleotide complex formation was inhibited: EMSA
Procedure: Zinc finger reactivity was measured using a Zn specific fluorochrome, TSQ, N-(6-methoxy-8-quinolyl)-p-toluenesulfonamide, assay or a Trp37 zinc finger fluorescence assay. Fluorescent measurements of the Trp37 residue in the C-terminal finger of recombinant HIV-1 NCp7 protein were performed as described by Rice (1995) Science 270:1194-1197; Rice (1997) Antimicrob. Agents Chemother. 41:419-426. Measurement of Zn ejection from both fingers was measured using the Zn-selective fluorchrome probe TSQ (Molecular Probes, Eugene Oreg.) as described by Rice (1996) J. Med. Chem 39:3606-3616. Measurement of the ability of NCp7 to bind to a DNA oligomer, a 44 mer: GGCGACTGGTGAGTACGCCAAAAATTTTGACTAGCGGAGGCTAG (SEQ ID NO:1), analogous to the HIV-1 RNA packaging site was carried out as described by Huang (1998) J. Med. Chem. 41:1371-1381, see also, Rossio (1998) HIV Pathogenesis and Treatment: Keystone Symposium on Molecular and Cellular Biology, Abstract # 4082. Briefly, 50 nM NCp7 was treated with test compounds for 1 hour at RT in […] buffer containing 10% glycerol and 50 mM Tris-HCl (pH 7.5). Labeled oligomer (0.1 picomole, end labeled [^32P] was added in an equal volume of buffer containing 10% glycerol, 50 mM Tris-HCl (pH 7.5), 400 mM KCl and 40 mM MgCl2. The reaction was continued for 15 min at room temperature, and a total of […] (or ¼ of the total reaction volume) was separated on nondenaturing 4.5% polyacrylamide gels in 0.5× Tris-Borate electrophoresis buffer. NCp7-oligomer complexes were visualized by autoradiography.
Interaction of zinc finger inhibitors with NCp7 can result in loss of protein structure and their ability to specifically bind oligonucleotides representing the HIV-1ψpackaging site (Huang (1998) supra; Tummino (1997) Antimicrob. Agents Chemother. 41:394-400; South (1993) Protein Sci. 2:3-19; Dannull (1994) EMBO J. 13:1525-1533). The ability of NCp7 to specifically associate with these oligonucleotides after treatment of the protein with a thiolester of the invention was tested. For example, compounds 44, 45 or 47 were very effective at inhibiting Ncp7's ability to associate with target oligonucleotide, as determined using electrophoretic mobility shift assays (EMSA) on nondenaturing polyacrylamide gels. At 1 μM, compound 45 inhibited complex formation. Compounds 44 and 47 inhibited complex formation at 100 μM (see Table 9).

[2] = molecular target: T1, Pr55gag precursor (Human immunodeficiency virus type 1 group M subtype B, UniProt P03347); test: Gag precursor cross-linking and processing in U1 cells (Western blotting); type: cell-based, HIV-1; details: TNFα-induced U1 cells
T1 construct: endogenous in cells; host or cells: U1 cells (latently HIV-1 infected), induced with TNFα
Procedure: (§1) Thiolester compounds were also tested for their ability to. inhibit HIV-1 replication in TNFα-induced U1 and ACH-2 cells. U1 cells were induced with 5 ng/ml of TNFα in the presence of various concentrations of the thiolesters 44, 45 or 47. Forty-eight hours later the cultures were characterized for virus p24 antigen production and cell viability. […] Compound 44 killed 60% of the cells at 200 μM. […] Precursor processing evaluation performed as described by Turpin (1997) Antiviral Chem. Chemother. 8:60-69. Thus, thiolester PATEs initiate intracellular disulfide cross-linking of precursor polyproteins during late phase virus assembly and mediate a direct virucidal effect via an attack on the mature NCp7 retroviral zinc fingers in the cell-free virus.
Virion cross linking was performed as described by Rice (1995) Science 270:1194-1197 and Turpin (1997) Antiviral Chem. Chemother. 8:60-67. Briefly, highly purified HIV-1MN (11.8 μg total protein) was incubated for 2 hour with concentrations of compound. Virions were concentrated and residual compound was removed by centrifugation (18,000×g, 1 h, 4° C.). The viral pellet was solubilized in 0.5 M Tris-HCl, (pH 6.8), 50% glycerol, 8% SDS and 0.4% bromophenol blue and proteins resolved by Western blotting. Western blotting to detect the expression of HIV-1 proteins in U1 cells or virus pellets for virion cross-linking experiments was carried out as described by Turpin (1996) J. Virol. 70:6180-6189. Briefly, 50 μg of total cellular protein for U1 experiments or the. total virion pellet (11.8 μg total viral protein) for NCp7 cross linking studies was resolved on 4 to 20% polyacrylamide gels in SDS with Tris-Glycine (Novex, San Diego Calif.). Samples for reduced gels were boiled for 5 min in the presence of 5% β-ME prior to loading. Resolved proteins were electroblotted on to polyvinylidene difluoride (PVDF) membranes, and HIV-1 specific proteins were detected using a mixture of goat anti-HIV-1 NCp7 and p24 or anti-NCp7 for virion proteins alone (a kind gift of L. E. Henderson, AIDS Vaccine Program NCI-FCRDC, Frederick, Md.). […]

[3] = molecular target: T2, Virion-associated NCp7 proteins from cell-free HIV-1MN (Human immunodeficiency virus type 1 group M subtype B, UniProt P05888); test: Virion NCp7 cross-linking (non-reducing Western blotting)
T2 construct: attack on the mature NCp7 retroviral zinc fingers in the cell-free virus; endogenous in cells
Procedure: The interaction of zinc finger inhibitors, such as the thiolesters of the invention, with cell-free virus can result in modification of intravirion NCp7 protein and loss of infectivity. Virion-associated NCp7 proteins from cell-free HIV-1MN were treated with thiolester compounds 44 and 45. They were also evaluated by non-reducing Western blotting using HIV-1 NCp7-specific antibodies. […] Cross-linking by compound 45 was due to formation of intermolecular disulfide bonds because reduction with 2-mercaptoethanol (β-ME) completely reversed the gel retardation.
Virion cross linking was performed as described by Rice (1995) Science 270:1194-1197 and Turpin (1997) Antiviral Chem. Chemother. 8:60-67. Briefly, highly purified HIV-1MN (11.8 μg total protein) was incubated for 2 hour with concentrations of compound. Virions were concentrated and residual compound was removed by centrifugation (18,000×g, 1 h, 4° C.). The viral pellet was solubilized in 0.5 M Tris-HCl, (pH 6.8), 50% glycerol, 8% SDS and 0.4% bromophenol blue and proteins resolved by Western blotting. Western blotting to detect the expression of HIV-1 proteins in U1 cells or virus pellets for virion cross-linking experiments was carried out as described by Turpin (1996) J. Virol. 70:6180-6189. Briefly, 50 μg of total cellular protein for U1 experiments or the. total virion pellet (11.8 μg total viral protein) for NCp7 cross linking studies was resolved on 4 to 20% polyacrylamide gels in SDS with Tris-Glycine (Novex, San Diego Calif.). Samples for reduced gels were boiled for 5 min in the presence of 5% β-ME prior to loading. Resolved proteins were electroblotted on to polyvinylidene difluoride (PVDF) membranes, and HIV-1 specific proteins were detected using a mixture of goat anti-HIV-1 NCp7 and p24 or anti-NCp7 for virion proteins alone (a kind gift of L. E. Henderson, AIDS Vaccine Program NCI-FCRDC, Frederick, Md.). Western blots were developed using standard chemiluminescence methodologies, as produced and described by Dupont-NEN, Wilmington, Del.
Purified concentrated retrovirus and antisera against the purified NC protein of the virus can be used to test the ability of a specific compound to penetrate the virus and react with the NC protein by forming disulfide complexes in the core of the virus. Compound are mixed with the whole retrovirus under reaction conditions appropriate for the compound. The virus is then removed from the reagent by centrifugation and disrupted in, e.g., standard SDS-PAGE sample buffer with (reduced) and without (non-reduced) 2-mercaptoethanol. The viral proteins are then separated by standard SDS-PAGE and the sample examined for the presence or absence of the monomeric zinc finger protein in the non-reduced sample. Depending upon the virus used in the experiment and the conditions of electrophoresis, the zinc finger protein can be visualized by protein staining methods, or by immuno-blot methods. Compounds which react with the zinc finger protein by attacking the zinc finger complexes and forming disulfide cross-linked products inactivate the virus. Thus, compounds of interest (i.e., those which cause cross-linking), including the thiolesters of the invention, reduce the amount of monomeric zinc finger protein detected.

[4] = system: U1 cells; test: Cell viability of TNFα-induced U1 cells; type: cell-based
Procedure: as §1

Row | SMILES | concentration at which NCp7-oligonucleotide complex formation was inhibited [1] [µM] | cross-linking and processing of viral precursor polyproteins (in words) [2] | intravirion NCp7 cross-linking (in words) [3] | cells killed ([4]; U1 cells, at 200 μM) [%] | cellular toxicity in U1 cells ([4]; high test dose of 100 μM) | IC50 [1] [µM] | cellular toxicity in U1 cells ([4]; higher dose testing (300 μM))
1 | CC(=O)NS(=O)(=O)c1ccc(NC(=O)c2ccccc2SC(=O)CCCCBr)cc1 [Compound 44, N-[2-(5-bromovaleroylthio)benzoyl]sulfacetamide] | 100 | induced β-ME reversible alterations in the mobility of zinc finger containing HIV-1 precursor proteins at a intermediate level | very poor cross-linking agent | 60 | No cellular toxicity |  | 
2 | O=C(CCCC[n+]1ccccc1)Sc1ccccc1C(=O)Nc1ccc(S(=O)(=O)c2ccc([N+](=O)[O-])cc2)cc1 [Compound 47] | 100 | induced cross-linking of viral precursor polyproteins and prevented processing of those precursors | did not effectively initiate NCp7 cross-linking |  | No cellular toxicity | 100 | no toxicity
3 | O=C(O)CCCC[n+]1ccccc1.[Br-] [Compound 53, 5-pyridiniovaleric acid] |  |  | Neither intravirion cross-linkage of NCp7 nor virucidal activity were detected |  |  |  | 
4 | CC(=O)NS(=O)(=O)c1ccc(NC(=O)c2ccccc2SC(=O)CCCC[n+]2ccccc2)cc1 [Compound 45, N-[2-(5-pyridinio-valeroylthio)benzoyl]sulfacetamide bromide] | 1 | induced cross-linking of viral precursor polyproteins and prevented processing of those precursors | extensive cross-linking of NCp7; also recorded: strong cross-linker of intravirion NCp7 |  | No cellular toxicity |  | no toxicity
